The compounds below were run against T1, human TLR8 (wild type sequence) (Homo sapiens, UniProt Q9NR97) (assay: TLR8 cellular NFκB-luc reporter assay, wild type TLR8). Settings: lowest effective concentration, wild type TLR8 (compounds 1-73).
T1 construct: expressed in transfected cells; host or cells: HEK293
T1 sequence (Q9NR97 27-1041): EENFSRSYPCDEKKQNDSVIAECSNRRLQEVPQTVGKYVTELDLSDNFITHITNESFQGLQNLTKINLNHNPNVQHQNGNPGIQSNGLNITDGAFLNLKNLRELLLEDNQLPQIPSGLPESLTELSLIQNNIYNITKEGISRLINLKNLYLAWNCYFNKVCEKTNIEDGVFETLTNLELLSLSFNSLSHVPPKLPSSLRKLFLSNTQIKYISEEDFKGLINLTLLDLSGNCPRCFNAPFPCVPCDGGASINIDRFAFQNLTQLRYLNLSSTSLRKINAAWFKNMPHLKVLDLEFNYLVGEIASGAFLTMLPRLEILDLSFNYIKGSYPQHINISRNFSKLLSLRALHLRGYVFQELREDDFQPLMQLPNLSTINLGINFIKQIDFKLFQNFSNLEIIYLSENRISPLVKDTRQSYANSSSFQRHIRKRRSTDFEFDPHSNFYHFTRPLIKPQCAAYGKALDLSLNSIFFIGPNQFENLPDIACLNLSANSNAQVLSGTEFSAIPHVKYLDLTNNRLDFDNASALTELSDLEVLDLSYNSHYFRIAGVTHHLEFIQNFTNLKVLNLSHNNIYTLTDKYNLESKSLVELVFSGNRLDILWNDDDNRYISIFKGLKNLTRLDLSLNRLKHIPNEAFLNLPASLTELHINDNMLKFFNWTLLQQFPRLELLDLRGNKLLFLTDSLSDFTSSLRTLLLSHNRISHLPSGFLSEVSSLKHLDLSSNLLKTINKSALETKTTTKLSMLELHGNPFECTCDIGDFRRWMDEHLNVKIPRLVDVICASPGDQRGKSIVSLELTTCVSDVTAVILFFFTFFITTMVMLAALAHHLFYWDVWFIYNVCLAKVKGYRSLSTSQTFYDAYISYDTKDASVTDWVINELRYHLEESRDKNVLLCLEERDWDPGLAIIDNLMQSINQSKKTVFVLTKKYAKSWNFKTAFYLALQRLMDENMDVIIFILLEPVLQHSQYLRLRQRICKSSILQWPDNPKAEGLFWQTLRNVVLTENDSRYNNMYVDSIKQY
Format: cell-based
Parameters: unit not given here
Summary of the method: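 HEK293, transient transfection 48 h (CMV-TLR7/8 WT or 2nd-LRR deletion + NFκB-luc); compound 6 h, 37 °C, 5% CO2; Steady Lite luciferase; quadruplicate dose-response; LEC = conc. ≥2× above assay SD.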
In the case of `CCCCNc1nc(N)ncc1OCCCc1ccc(OC)cc1` [Compound 2], the TLR8-wt_LEC is reported as 1.34. Work on `CCCCNc1nc(N)nc(C)c1Oc1ccccc1` [Compound 3] yielded a TLR8-wt_LEC of 4.91. With `CCCCNc1nc(N)ncc1OCc1ncc(C)c(OC)c1C` [Compound 6] the TLR8-wt_LEC was 0.16. With `CCCCNc1nc(N)nc(C)c1Oc1ccccc1OC` [Compound 7] the TLR8-wt_LEC was 5.84. In the case of `CCCCNc1nc(N)ncc1OCc1ccccc1F` [Compound 8], the TLR8-wt_LEC is reported as 1.88. `CCCCNc1nc(N)ncc1OCCC(C)C` [Compound 9] was tested, and the TLR8-wt_LEC was 19.00. For `CCCCNc1nc(N)ncc1OCCCC` [Compound 10], the TLR8-wt_LEC was 8.14. In the case of `CCCCNc1nc(N)ncc1OCc1ccc(Cl)c(Cl)c1` [Compound 11], the TLR8-wt_LEC is reported as 4.52. `CCCCNc1nc(N)ncc1OCc1ccc(C(=O)OC)cc1` [Compound 12] showed a TLR8-wt_LEC of 1.49. `CCCCNc1nc(N)ncc1OCCc1ccccc1` [Compound 13] was tested, and the TLR8-wt_LEC was 13.18. `CCCCNc1nc(N)ncc1OCc1ccccc1C` [Compound 14] showed a TLR8-wt_LEC of 4.92. With `CCCCNc1nc(N)ncc1OCc1ccccc1Cl` [Compound 15] the TLR8-wt_LEC was 2.31. For `C=CCCOc1cnc(N)nc1NCCCC` [Compound 16], the TLR8-wt_LEC was 2.68. In the case of `CCCCNc1nc(N)ncc1OCCOC` [Compound 17], the TLR8-wt_LEC is reported as 2.03. Compound `CCCCNc1nc(N)ncc1OCc1ccncc1` [Compound 18] has a TLR8-wt_LEC of 1.87. `C=CCCCCOc1cnc(N)nc1NCCCC` [Compound 20] was tested, and the TLR8-wt_LEC was 10.21. `CCCCNc1nc(N)ncc1OCCO` [Compound 21] was tested, and the TLR8-wt_LEC was 2.69. With `CCCCNc1nc(N)ncc1OCc1cccnc1` [Compound 22] the TLR8-wt_LEC was 2.35. `CCCCNc1nc(N)ncc1OCc1cccc(C(=O)OC)c1` [Compound 23] was tested, and the TLR8-wt_LEC was 2.55. In the case of `CCCCNc1nc(N)ncc1OCCCO` [Compound 24], the TLR8-wt_LEC is reported as 2.42.

These compounds were tested on human TLR7 mutant sequence comprising a deletion in the second leucine-rich repeat (assay: TLR7 cellular NFκB-luc reporter assay, mutant TLR7 with deletion in the second leucine-rich repeat). Settings: lowest effective concentration, TLR7 mutant with deletion in second leucine-rich repeat.
Format: cell-based
Parameters: unit not given here
Summary of the method: (§1)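 HEK293 cells transiently co-transfected with CMV-driven mutant TLR7 or TLR8 plasmid plus NFκB-luc reporter, cultured 48 h at 37 °C, then exposed to compound for 6 h at 37 °C, 5% CO2. Luciferase luminescence measured; dose-response curves from quadruplicates.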
Work on `CCCCNc1nc(N)ncc1OCCCc1ccc(OC)cc1` [Compound 2] yielded a TLR7-dIRR2_LEC of 0.02. For `CCCCNc1nc(N)nc(C)c1Oc1ccccc1` [Compound 3], the TLR7-dIRR2_LEC was 21.69. For `CCCCNc1nc(N)ncc1OCc1ncc(C)c(OC)c1C` [Compound 6], the TLR7-dIRR2_LEC was 0.01. `CCCCNc1nc(N)nc(C)c1Oc1ccccc1OC` [Compound 7] gave a TLR7-dIRR2_LEC of 1.11. `CCCCNc1nc(N)ncc1OCc1ccccc1F` [Compound 8] gave a TLR7-dIRR2_LEC of 0.38. `CCCCNc1nc(N)ncc1OCCC(C)C` [Compound 9] was tested, and the TLR7-dIRR2_LEC was 1.55. `CCCCNc1nc(N)ncc1OCCCC` [Compound 10] showed a TLR7-dIRR2_LEC of 1.28. For `CCCCNc1nc(N)ncc1OCc1ccc(Cl)c(Cl)c1` [Compound 11], the TLR7-dIRR2_LEC was 0.60. `CCCCNc1nc(N)ncc1OCc1ccc(C(=O)OC)cc1` [Compound 12] was tested, and the TLR7-dIRR2_LEC was 0.26. For `CCCCNc1nc(N)ncc1OCCc1ccccc1` [Compound 13], the TLR7-dIRR2_LEC was 2.26. `CCCCNc1nc(N)ncc1OCc1ccccc1C` [Compound 14] showed a TLR7-dIRR2_LEC of 0.91. Compound `CCCCNc1nc(N)ncc1OCc1ccccc1Cl` [Compound 15] has a TLR7-dIRR2_LEC of 0.17. For `C=CCCOc1cnc(N)nc1NCCCC` [Compound 16], the TLR7-dIRR2_LEC was 0.49. For `CCCCNc1nc(N)ncc1OCCOC` [Compound 17], the TLR7-dIRR2_LEC was 0.34. `CCCCNc1nc(N)ncc1OCc1ccncc1` [Compound 18] showed a TLR7-dIRR2_LEC of 0.83. For `C=CCCCCOc1cnc(N)nc1NCCCC` [Compound 20], the TLR7-dIRR2_LEC was 0.79. Work on `CCCCNc1nc(N)ncc1OCCO` [Compound 21] yielded a TLR7-dIRR2_LEC of 1.61. For `CCCCNc1nc(N)ncc1OCc1cccnc1` [Compound 22], the TLR7-dIRR2_LEC was 0.31. Work on `CCCCNc1nc(N)ncc1OCc1cccc(C(=O)OC)c1` [Compound 23] yielded a TLR7-dIRR2_LEC of 0.26. `CCCCNc1nc(N)ncc1OCCCO` [Compound 24] was tested, and the TLR7-dIRR2_LEC was 1.99.

What follows are compounds tested on HCV replicon in Huh-7 luc/neo cells (assay: Suppression of HCV replicon replication by conditioned media from compound-treated PBMC). Settings: Hepatitis C virus, Huh-7; read-out: PBMC-HUH7_EC50.
Format: cell-based, HCV type 1 b
Summary of the method: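 Human PBMC (≥2 donors, RPMI + 10% human AB serum, 2×10^5 cells/well) incubated overnight with compounds; supernatant transferred onto Huh-7 luc/neo HCV 1b replicon cells. After 24 h, replication read as luciferase activity. Recombinant interferon α-2a served as standard.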
For `CCCCNc1nc(N)ncc1OCCCc1ccc(OC)cc1` [Compound 2], the EC50 was 0.04 µM. `CCCCNc1nc(N)nc(C)c1Oc1ccccc1` [Compound 3] showed an EC50 of 10.8 µM. With `CCCCNc1nc(N)ncc1OCc1ncc(C)c(OC)c1C` [Compound 6] the EC50 was 0.02 µM. For `CCCCNc1nc(N)nc(C)c1Oc1ccccc1OC` [Compound 7], the EC50 was 3.11 µM. Work on `CCCCNc1nc(N)ncc1OCc1ccccc1F` [Compound 8] yielded an EC50 of 0.37 µM. `CCCCNc1nc(N)ncc1OCCC(C)C` [Compound 9] gave an EC50 of 9.72 µM. `CCCCNc1nc(N)ncc1OCCCC` [Compound 10] gave an EC50 of 1.58 µM. `CCCCNc1nc(N)ncc1OCc1ccc(Cl)c(Cl)c1` [Compound 11] was tested, and the EC50 was 0.78 µM. `CCCCNc1nc(N)ncc1OCc1ccc(C(=O)OC)cc1` [Compound 12] was tested, and the EC50 was 2.76 µM. `CCCCNc1nc(N)ncc1OCCc1ccccc1` [Compound 13] showed an EC50 of 2.53 µM. `CCCCNc1nc(N)ncc1OCc1ccccc1C` [Compound 14] showed an EC50 of 1.81 µM. `CCCCNc1nc(N)ncc1OCc1ccccc1Cl` [Compound 15] showed an EC50 of 0.17 µM. For `C=CCCOc1cnc(N)nc1NCCCC` [Compound 16], the EC50 was 0.79 µM. For `CCCCNc1nc(N)ncc1OCCOC` [Compound 17], the EC50 was 0.71 µM. In the case of `CCCCNc1nc(N)ncc1OCc1ccncc1` [Compound 18], the EC50 is reported as 0.63 µM. Work on `C=CCCCCOc1cnc(N)nc1NCCCC` [Compound 20] yielded an EC50 of 1.33 µM. `CCCCNc1nc(N)ncc1OCCO` [Compound 21] showed an EC50 of 3.08 µM. `CCCCNc1nc(N)ncc1OCc1cccnc1` [Compound 22] gave an EC50 of 0.25 µM. `CCCCNc1nc(N)ncc1OCc1cccc(C(=O)OC)c1` [Compound 23] gave an EC50 of 10.8 µM. `CCCCNc1nc(N)ncc1OCCCO` [Compound 24] was tested, and the EC50 was 2.75 µM.

Each compound was assayed on human TLR8 mutant sequence comprising a deletion in the second leucine-rich repeat (assay: TLR8 cellular NFκB-luc reporter assay, mutant TLR8 with deletion in the second leucine-rich repeat). Settings: lowest effective concentration, TLR8 mutant with deletion in second leucine-rich repeat.
Format: cell-based
Parameters: unit not given here
Summary of the method: as §1
Work on `CCCCNc1nc(N)ncc1OCCCc1ccc(OC)cc1` [Compound 2] yielded a TLR8-dIRR2_LEC of 0.31. Work on `CCCCNc1nc(N)nc(C)c1Oc1ccccc1` [Compound 3] yielded a TLR8-dIRR2_LEC of 1.66. Work on `CCCCNc1nc(N)ncc1OCc1ncc(C)c(OC)c1C` [Compound 6] yielded a TLR8-dIRR2_LEC of 0.10. Compound `CCCCNc1nc(N)nc(C)c1Oc1ccccc1OC` [Compound 7] has a TLR8-dIRR2_LEC of 3.03. `CCCCNc1nc(N)ncc1OCc1ccccc1F` [Compound 8] showed a TLR8-dIRR2_LEC of 0.81. In the case of `CCCCNc1nc(N)ncc1OCCC(C)C` [Compound 9], the TLR8-dIRR2_LEC is reported as 9.70. Work on `CCCCNc1nc(N)ncc1OCCCC` [Compound 10] yielded a TLR8-dIRR2_LEC of 2.82. For `CCCCNc1nc(N)ncc1OCc1ccc(Cl)c(Cl)c1` [Compound 11], the TLR8-dIRR2_LEC was 3.50. With `CCCCNc1nc(N)ncc1OCc1ccc(C(=O)OC)cc1` [Compound 12] the TLR8-dIRR2_LEC was 1.12. In the case of `CCCCNc1nc(N)ncc1OCCc1ccccc1` [Compound 13], the TLR8-dIRR2_LEC is reported as 5.23. For `CCCCNc1nc(N)ncc1OCc1ccccc1C` [Compound 14], the TLR8-dIRR2_LEC was 0.91. `CCCCNc1nc(N)ncc1OCc1ccccc1Cl` [Compound 15] was tested, and the TLR8-dIRR2_LEC was 1.06. With `C=CCCOc1cnc(N)nc1NCCCC` [Compound 16] the TLR8-dIRR2_LEC was 0.59. `CCCCNc1nc(N)ncc1OCCOC` [Compound 17] was tested, and the TLR8-dIRR2_LEC was 0.67. `CCCCNc1nc(N)ncc1OCc1ccncc1` [Compound 18] showed a TLR8-dIRR2_LEC of 0.85. For `C=CCCCCOc1cnc(N)nc1NCCCC` [Compound 20], the TLR8-dIRR2_LEC was 2.87. With `CCCCNc1nc(N)ncc1OCCO` [Compound 21] the TLR8-dIRR2_LEC was 0.64. For `CCCCNc1nc(N)ncc1OCc1cccnc1` [Compound 22], the TLR8-dIRR2_LEC was 0.94. Work on `CCCCNc1nc(N)ncc1OCc1cccc(C(=O)OC)c1` [Compound 23] yielded a TLR8-dIRR2_LEC of 1.45. `CCCCNc1nc(N)ncc1OCCCO` [Compound 24] gave a TLR8-dIRR2_LEC of 1.50.

Source: US11541050B2, “Pyrimidine derivatives for the treatment of viral infections” (JANSSEN SCIENCES IRELAND UC, priority 2011, dated 2023)
